# Laboratory results taken from ChEMBL document CHEMBL1131237 (J Med Chem, 1998).
# Several values for one entry are separate records, joined by “and”; a condition that tells them apart may be missing. Equal values may be shown once.
# Tests used:
# [1] = target: T1, Sodium-dependent dopamine transporter (Rattus norvegicus, UniProt P23977); assay: Ability to displace [3H]WIN-35428 binding to dopamine transporter from rat striatal membranes
# [2] = target: T1, Sodium-dependent dopamine transporter; assay: Inhibition of high-affinity uptake of [3H]dopamine at dopamine transporter into rat striatal nerve endings (synaptosomes); type: subcellular, Brain
# [3] = target: Sodium-dependent dopamine transporter (Rattus norvegicus) (UniProt P23977); assay: Hill coefficient was determined
# [4] = target: Sodium-dependent dopamine transporter (Rattus norvegicus) (UniProt P23977)
# T1 sequence (P23977 whole entry): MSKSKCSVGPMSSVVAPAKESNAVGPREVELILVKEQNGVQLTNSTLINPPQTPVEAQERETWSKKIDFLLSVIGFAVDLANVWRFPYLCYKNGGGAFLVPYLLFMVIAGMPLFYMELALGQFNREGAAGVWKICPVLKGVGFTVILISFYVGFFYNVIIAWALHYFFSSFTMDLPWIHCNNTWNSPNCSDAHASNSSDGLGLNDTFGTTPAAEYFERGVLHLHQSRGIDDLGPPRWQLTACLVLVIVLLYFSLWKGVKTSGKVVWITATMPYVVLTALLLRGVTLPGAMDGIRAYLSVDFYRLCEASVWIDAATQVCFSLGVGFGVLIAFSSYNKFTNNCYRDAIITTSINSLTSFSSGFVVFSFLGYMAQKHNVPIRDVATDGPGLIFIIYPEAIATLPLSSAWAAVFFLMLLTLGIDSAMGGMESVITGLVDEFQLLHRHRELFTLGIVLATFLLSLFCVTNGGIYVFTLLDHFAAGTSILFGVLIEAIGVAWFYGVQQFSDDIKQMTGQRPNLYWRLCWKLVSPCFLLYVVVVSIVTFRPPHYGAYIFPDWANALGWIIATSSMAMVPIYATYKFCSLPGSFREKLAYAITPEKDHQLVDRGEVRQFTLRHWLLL
# Chain of Sodium-dependent dopamine transporter (Rattus norvegicus) (P23977 whole entry): as above
SMILES,IC50 [1] [µM],IC50 [2] [µM],Hill coefficient [3],Hill coefficient [4]
COC(=O)[C@H]1CN(C)CC[C@H]1c1ccc(Cl)cc1,0.653,0.195,0.96 and 1.08,
CN1CC[C@@H](c2ccc(Cl)cc2)C(CO)C1 (stereo partly specified),0.442,,,0.66
CC(=O)OCC1CN(C)CC[C@H]1c1ccc(Cl)cc1 (stereo partly specified),0.928,2.02,,0.89 and 1.07
COC(=O)C1CN(C)CC[C@@H]1c1ccccc1 (stereo partly specified),0.769,,1.02,
CC(=O)OC[C@@H]1CN(C)CC[C@@H]1c1ccc(Cl)cc1,,,,0.66 and 1.03
CCC[C@@H]1CN(C)CC[C@@H]1c1ccc(Cl)cc1,,,0.64 and 1.04,
COC(=O)[C@@H]1CN(C)CC[C@@H]1c1ccc(Cl)cc1,,,,0.78 and 0.94
COC(=O)[C@H]1CN(C)CC[C@@H]1c1ccc(Cl)cc1 (racemic),0.197,,,0.91
COC(=O)[C@@H]1CN(C)CC[C@@H]1c1ccc(Cl)cc1 (racemic),,,,0.91 and 1.04
"CC(=O)OCC1CN(C)CC[C@@H]1c1ccc(Cl)cc1 (single isomer, unassigned)",0.461,,,0.76
"CCCC1CN(C)CC[C@@H]1c1ccc(Cl)cc1 (single isomer, unassigned)",0.0172,0.0232,0.85 and 1.03,
"COC(=O)C1CN(C)CC[C@H]1c1ccc(Cl)cc1 (single isomer, unassigned)",,5.09,0.81 and 0.95,
"COC(=O)C1CN(C)CC[C@@H]1c1ccc(Cl)cc1 (single isomer, unassigned)",,,,0.78 and 0.97
"COC(=O)[C@H]1[C@@H](OC(=O)c2ccccc2)CC2CC[C@H]1N2C (single isomer, unassigned)",,,,0.87 and 1.06
"CN1CC[C@H](c2ccc(Cl)cc2)C(CO)C1 (single isomer, unassigned; (+)-13) [listing 1 of 2 here]",0.24,0.683,,
"CN1CC[C@H](c2ccc(Cl)cc2)C(CO)C1 (single isomer, unassigned; (+)-13) [listing 2 of 2 here]",,,,0.85 and 1.09
"CN1CC[C@H](c2ccc(Cl)cc2)C(CO)C1 (single isomer, unassigned; (-)-5) [listing 1 of 2 here]",0.0753,0.049,,
"CN1CC[C@H](c2ccc(Cl)cc2)C(CO)C1 (single isomer, unassigned; (-)-5) [listing 2 of 2 here]",,,,0.56 and 1.04
